A melting point compilation (Tetko et al.; mined from patent text by program, amines drawn as free bases though some values may be those of a salt)

First: CCCCOc1nc(N)c2nc(OC)n(CCSc3cccc(CC(=O)O)c3)c2n1
Second: CCOCc1nc2c(N)nc3cc(OCCCN4CCCC4=O)ccc3c2n1CCCCNC(=O)NC(C)C
The melting point of the first is higher: 205 to 207 °C for the first, 98 to 101 °C for the second.

Compared with `CC(C)(CCCc1cccc2cncn12)CC(=O)O`, `CC(=O)NCCc1ccc(CCC(=O)O)cc1` is higher in melting point: 124 to 129 °C for the first, 132 to 133 °C for the second.

First: C(=NNc1ccccc1)c1ccccn1
Second: O=C(O)c1cccnc1N1CCc2ccccc2C1
The melting point of the first is higher: 179 °C for the first, 150 to 152 °C for the second.

First: CC1(C)Oc2ccsc2C(NC(=O)c2cccnc2)C1O (stereo not given)
Second: CN(C(=O)OC(C)(C)C)c1sc(-c2cccnc2)nc1Cl
The melting point of the first is higher: 248 to 249 °C for the first, 119 to 122 °C for the second.

First: CC(=O)c1c(O)cccc1OCCCCCOc1ccc2cc(C(=O)O)ccc2c1
Second: COc1cc(C(C)=O)ccc1OCCCN1CCCC(C(O)(c2ccc(F)cc2)c2ccc(F)cc2)C1 (stereo not given)
The melting point of the first is higher: 190 to 193 °C for the first, 100 to 105 °C for the second.

First: CNC(=O)Oc1ccc(CN2CCN(c3ccc(C(C)=O)cc3)CC2)cc1OC
Second: COc1ccc(N2CCN(c3ccc(-n4cnn(C(C)C)c4=O)cc3)CC2)cc1
The melting point of the first is lower: 120 to 123 °C for the first, 210 °C for the second.

Compared with `O=C1NC(=O)c2c1cc1ccc3c(c1c2-c1ccc2c(c1)OCO2)OCC3`, `Cc1cc(C2=NNC(=O)Cc3cc4c(cc32)OCO4)ccc1N` is lower in melting point: over 320 °C for the first, 164 to 166 °C for the second.

First: COc1cc2c(cc1Br)CC(C)OC2c1ccc([N+](=O)[O-])cc1 (stereo not given)
Second: COc1cccc2c1OC(COS(=O)(=O)c1ccc(C)cc1)CC2 (stereo not given)
The melting point of the first is higher: 128 to 129 °C for the first, 115 to 117 °C for the second.

First: COC(=O)NC=Cc1ccc(O)cc1
Second: O=Cc1ccc(O)c(NC(=O)CCl)c1
The melting point of the first is lower: 169 to 170 °C for the first, 190 to 192 °C for the second.

First: CCCCCCNC(=O)c1cccc2c1C1(COc3cc4c(cc31)OCCO4)C(=O)N2C (stereo not given)
Second: O=C1N(Cc2ccc(N3CCOCC3)cn2)c2ccccc2C12COc1cc3c(cc12)OCCO3 (stereo not given)
The melting point of the first is lower: 172 to 173 °C for the first, 204 to 206 °C for the second.

Compared with `CC1CC(=O)Nc2ncc3c(c21)CCCN3` (stereo not given), `CCOc1c(C(=O)NC2CN3CCC2CC3)cc(Cl)c2c1CCCN2` (stereo not given) is lower in melting point: 309 to 311 °C for the first, 160 °C for the second.

First: COc1cc2c(cc1OC)CN(CCCc1ccc(NC(=O)c3cccc4c(=O)c5cccc(OC)c5[nH]c34)cc1)CC2
Second: Cc1cccc(-c2nc3cccnn3c2-c2ccnc(NC(=O)N3CCc4ccccc4C3)c2)c1
The melting point of the first is higher: 135 °C for the first, 122 to 124 °C for the second.

First: O=C(NC1CCN(CCCOc2ccccc2-c2nnn[nH]2)CC1)c1ccccc1
Second: COC(=O)c1ccccc1S(=O)(=O)N1CCC[C@H]1C(=O)N[C@@H](Cc1ccccc1)C(=O)O
The melting point of the first is higher: 275 to 277 °C for the first, 163 to 165 °C for the second.

First: O=C1C(Cc2ccccc2)N(c2ccc(Oc3ccccc3)cc2)C(=S)N1c1ccccc1 (stereo not given)
Second: c1ccc(-c2nc3ccc(Cn4ccnc4)cc3nc2-c2ccccc2)cc1
The melting point of the first is lower: 130 °C for the first, 159 °C for the second.

First: CC(=O)Nc1cc(C)nn1C
Second: COC(=O)Cn1cnc2c(C)c[nH]c2c1=O
The melting point of the first is lower: 45 to 46 °C for the first, 233 to 235 °C for the second.

First: COc1cc(-c2ccc(F)cc2)nc(-c2ccccn2)n1
Second: CCCN(CCC)C(=O)Cn1c(-c2ccc(F)cc2)nc2cccnc21
The melting point of the first is lower: 97 to 98 °C for the first, 135 to 136 °C for the second.

Compared with `C#CCN(C(=O)c1ccccc1C(F)(F)F)S(=O)(=O)c1cccc(C)c1`, `Cc1cccc(-c2nc3ccc(OCCCN(C)C)cc3n2Cc2ccccc2C(F)(F)F)c1` is lower in melting point: 81 to 85 °C for the first, 74 °C for the second.

First: C(=C\c1ccc(N2CCCC2)cc1)/CC1CCN(Cc2ccccc2)CC1
Second: c1ccc(CSc2ccccc2Cn2cncn2)cc1
The melting point of the first is higher: 115 to 117 °C for the first, 65 to 68 °C for the second.

Compared with `O=C(O)COc1ccc(C(=O)C=Cc2ccccc2)c(Cl)c1Cl`, `COc1ccc(NC(=N)c2ccccc2)cc1NC(=O)/C=C/c1ccccc1C(F)(F)F` is higher in melting point: 190 to 191 °C for the first, 208 to 210 °C for the second.

First: CCOC(=O)/C=C/c1cccc(C2COc3c(C)c(C)c(NC(=O)CC(C)(C)C)c(C)c32)c1 (stereo not given)
Second: CCOC(=O)C1=Cc2cccc(SC)c2OCC1
The melting point of the first is higher: 199 to 200 °C for the first, 54 to 55 °C for the second.

First: CCCC/C=C\CCCCOc1cccc(C(N)=O)c1
Second: NC(=O)N(O)CCOc1ccc2c(c1)CCN(CCCc1ccccc1)S2(=O)=O
The melting point of the first is lower: 98 to 100 °C for the first, 134 to 135 °C for the second.

First: COCc1nc2c(N)nc3cc(CCC(=O)N4CCS(=O)(=O)CC4)ccc3c2n1CC(C)(C)O
Second: COC(=O)C1=Cc2cc(-c3ccc(C(C)(C)C)cc3)ccc2S(=O)(=O)CC1
The melting point of the first is higher: 190 to 192 °C for the first, 170 to 172 °C for the second.

First: Cc1cccc(/C=C/c2nc(COc3ccc(CCCCc4c[nH]c(CC(O)CO)n4)cc3)co2)c1 (stereo not given)
Second: COc1cc(OC(CCc2ccc(Cl)cc2)Cn2ccnc2)ccc1NC(C)=O (stereo not given)
The melting point of the first is lower: 102 to 104 °C for the first, 175 to 178 °C for the second.

Compared with `CN(C)c1ccc(CNc2ccc(C(F)(F)F)cc2[N+](=O)[O-])cc1`, `CC(C)(C)c1ccc(CN(CCOc2cccc(N)c2N)C(=O)C(F)(F)F)cc1` is lower in melting point: 158 to 160 °C for the first, 72 to 74 °C for the second.

Compared with `COc1ccc(Cc2nc3n(c2-c2ccccc2)CCS3)cc1`, `CNc1nc(-c2ccccc2)c(-c2nc3ccccc3c(=O)n2-c2ccccc2C)s1` is lower in melting point: 273 to 274 °C for the first, 220 to 225 °C for the second.

First: CCC(Oc1cc(N)c(Cl)cc1C(=O)NCCN(CC)CC)C(C)=O (stereo not given)
Second: CCCCOC(=O)C(c1ccc(O)c(C(C)(C)C)c1)c1ccc(O)c(C(C)(C)C)c1
The melting point of the first is lower: 75 to 78 °C for the first, 124 °C for the second.

First: O=C(O)c1ccc(OCCNC(=O)C2Cc3ccccc3N2S(=O)(=O)c2ccc(-c3cccc(C(F)(F)F)c3)cc2)c(F)c1 (stereo not given)
Second: COC(=O)C(C)c1ccc(OCCNC(=O)C2Cc3ccccc3N2S(=O)(=O)c2ccc(-c3cccc(C(F)(F)F)c3)cc2)cc1 (stereo not given)
The melting point of the first is higher: 96 to 104 °C for the first, 71 to 74 °C for the second.

First: CC1(C)CCC(C)(C)c2cc(-c3cc(-c4ccc(C(=O)O)cn4)ccc3-c3ccccc3)ccc21
Second: O=C(O)c1cccc(-c2ncn(-c3ccc(-c4ccccc4)cc3)n2)c1
The melting point of the first is lower: 105 to 107 °C for the first, 263 to 265 °C for the second.

First: Cc1cc(N2CCC3(CC2)OCCO3)c2cc(C)c(-c3ccc(Cl)cc3Cl)n2n1
Second: CON=CNC(=O)c1ccc(C2=NOC(c3cc(Cl)cc(Cl)c3)(C(F)(F)F)C2)cc1C (stereo not given)
The melting point of the first is higher: 193 to 196 °C for the first, 167 to 169 °C for the second.

First: Oc1cc(-c2ncc(C(F)(F)F)cc2F)c(F)cc1Cl
Second: CC(C)OC(=O)c1cc(-n2c(=O)cc(C(F)(F)F)[nH]c2=O)c(F)cc1Cl
The melting point of the first is lower: 94 to 96 °C for the first, 127 to 129 °C for the second.

Compared with `CCC(=S)N1CCSC1=Nc1ccccc1C(C)C`, `CC(C)COP(C)(=O)CC(O)CN1C(=O)c2ccccc2C1=O` (stereo not given) is higher in melting point: 79 to 81 °C for the first, 110 to 113 °C for the second.

Compared with `COc1cccc2sc(-c3ccc(C(F)(F)F)cc3)nc12`, `Cc1ccccc1-c1cn(C)cc(-c2cccc(C(F)(F)F)c2)c1=O` is higher in melting point: 104 °C for the first, 144 to 147 °C for the second.

First: CCCCCCCCCC1OC1CO (stereo not given)
Second: CC(O)CN(CC(=O)O)CC(C)O (stereo not given)
The melting point of the first is lower: 55 to 56 °C for the first, 145 °C for the second.

Compared with `CCOC(=O)C=Cc1cc(Cl)cc(Cl)c1`, `CCc1ccc(S(=O)O)cc1Cl` is lower in melting point: 71 to 73 °C for the first, 58 to 60 °C for the second.

Going from `C=CCC1=C(C)C(OC(=O)C2C(C=CC(C)=O)C2(C)C)CC1=C` (stereo not given) to `COc1cc2cc(c1Cl)N(C)C(=O)CC(O)C1(C)OC1C(C)C1CC(O)(NC(=O)O1)C(OC)C=CC=C(C)C2` (stereo not given), the melting point rises from under 50 °C to 174 °C.

First: C#CCON=C(C(=O)O)c1nc(NC(=O)C(F)(F)F)sc1Cl
Second: O=C(Nc1nc2cnccc2s1)N1CCCC1
The melting point of the first is lower: 178 to 180 °C for the first, 218 to 220 °C for the second.

First: Nc1cccc2c1cnn2-c1ccc(F)cc1
Second: Nc1ccc(C(=O)c2ccncc2)cc1
The melting point of the first is lower: 84 to 88 °C for the first, 152 °C for the second.

First: CC(C)(C)NC(=O)c1nn(-c2ccc([N+](=O)[O-])cc2)c2c1C1CCC2C1 (stereo not given)
Second: NS(=O)(=O)c1ccc(C2CCNCC2)cc1
The melting point of the first is lower: 224 to 226 °C for the first, 229 to 230 °C for the second.

First: CC1(C)SCc2ccccc2C1N=CNC#N (stereo not given)
Second: O=CCN1C(=O)c2ccccc2C1=O
The melting point of the first is higher: 164 to 166 °C for the first, 114 °C for the second.

First: COc1ccc(C(C)C)cc1CN[C@H]1[C@H]2CCN(C[C@@H]2C(=O)NC(C)C(N)=O)[C@H]1C(c1ccccc1)c1ccccc1 (stereo not given in full)
Second: CN(c1ccccc1)c1nc(N(C)c2ccccc2)c2sccc2n1
The melting point of the first is higher: 243 to 245 °C for the first, 120 to 122 °C for the second.

First: O=C(Nc1cccc(Br)c1)Oc1ccc2ncccc2c1
Second: O=C1c2ccccc2C(=O)N1CSc1ccncc1
The melting point of the first is higher: 260 °C for the first, 133 to 134 °C for the second.

Compared with `O=S1(=O)N=C(NCCc2ccccc2)Nc2ccc(Cl)cc21`, `Cn1cc(C2=C(c3cccc(NC(O)CCO)c3)C(=O)NC2=O)c2ccccc21` (racemic) is lower in melting point: 250 to 252 °C for the first, 97.5 to 101 °C for the second.

First: CON1C=C2N=NC3=C(N2C1)N(c1ccccn1)CC(C)=C3
Second: CSc1ccc(Nc2cc(-c3nnc(C(C)(C)OC(C)=O)o3)ccn2)cc1
The melting point of the first is higher: 216 to 220 °C for the first, 142 to 143 °C for the second.

First: C#CCOc1cc(Oc2ccc(F)cc2)ncn1
Second: FC(F)(F)c1ccc(OCCc2c[nH]cn2)cc1
The melting point of the first is lower: 81.4 °C for the first, 105 to 109 °C for the second.

First: CCOC(=O)c1ccc(C(=O)CCc2ccc(S(C)(=O)=O)cc2)cc1
Second: CC(C)(C)OC(=O)c1ccc(OCCNC(=O)C2Cc3ccccc3N2S(=O)(=O)c2ccc(-c3ccc(F)cc3F)cc2)cc1 (stereo not given)
The melting point of the first is higher: 118 to 120 °C for the first, 80 °C for the second.

First: CCn1c(=N)c(-c2c(Cl)cccc2Cl)cc2cnc(SC)nc21
Second: CN1CC2C(C1)C2Nc1ncc2cc(-c3ccccc3Cl)c(=O)n(C3CC3)c2n1 (stereo not given)
The melting point of the first is higher: 217 to 219 °C for the first, 190 to 191 °C for the second.

Compared with `NNC(=O)CSc1nc(Cl)cc(NCc2ccc(Cl)cc2)n1`, `COCS[C@H](C)[C@](O)(Cn1cncn1)c1ccc(Cl)cc1` is lower in melting point: 178 to 182 °C for the first, 122 °C for the second.

First: C[Si](C)(C)Oc1ccc(SSc2ccc(O[Si](C)(C)C)cc2)cc1
Second: O=C1C=C(c2ccccc2C(F)(F)F)CO1
The melting point of the first is lower: 21 to 22 °C for the first, 49 to 50 °C for the second.

Compared with `CN(C)CC(=O)Nc1ccc(Cl)c(C(=O)Nc2cccc3c4c(oc23)CCCC4)c1Cl`, `CN(C)CCC1CCC2(CC1)Nc1cc(Cl)c(S(N)(=O)=O)cc1S(=O)(=O)N2` (stereo not given) is higher in melting point: 207 °C for the first, 238 to 239 °C for the second.

First: Cc1ccc(O)c(C)c1N
Second: CC(C)C1(C)Cc2cc(O)c(Cl)c(Cl)c2C1=O (stereo not given)
The melting point of the first is lower: 177 to 179 °C for the first, 215 °C for the second.
